According to US8222282B2, “Sulfonate salts of 2-amino-3-carbethoxyamino-6-(4-fluoro-benzylamino)-pyridine” (Teva Pharmaceuticals USA, Inc., priority 2008, dated 2012):

Tests used:
Type in all cases: physicochemical
[1] = Oxidative stability: HPLC of flupirtine salts after storage at room temperature under open air; details: exposed to air, 30 days at room temperature; in contrast to maleate, gluconate or inorganic salts
[2] = as above; details: for decrease of area under the peak of the flupirtine signal: 0 to 14 days, room temperature, open air; for Flupirtine signal after 14 days (area under the peak in, %): HPLC after 14 days of storage at room temperature under open air; for Flupirtine signal after 0 days (area under the peak in, %): HPLC after isolation and drying
Method: HPLC Method [table] HPLC analysis was performed after isolation and drying of flupirtine maleate form A and flupirtine sulfonate salts and repeated after 14 days of storage at room temperature under open air.

[3] = Solubility in demineralised water (photometric); details: 60 min stirring at 20° C.; for solubility thermodynamic at 60 min: demineralised water
Method: […] Subsequently, an aliquot of the solution was centrifuged at 10,000 rpm and the flupirtine absorption was photometrically determined in the supernatant. The amount of flupirtine in solution was calculated with a response factor (absorption/mg substance).

[4] = Bulk density of flupirtine salts; details: volume per 100.0 g of sample material
Method: The bulk density was determined as follows: Without increasing its density, sample material (about 4 grams) was introduced into a 10 ml measuring cylinder (±0.2 ml). The volume and the exact weight of the introduced sample material were determined. The bulk density was calculated as volume per 100.0 g of sample material.

[5] = Discolouration measurements, optical comparison with RAL scale of colours; details: 60° C. and 70° C., alone and in mixture with MCC, lactose or DiCaPhos, dry and 100% rh
Method: Discolouration was measured using optical comparison with a standard: the RAL scale of colours (see list). The colour changes during the experiment were compared to this standard list and the appropriate value was noted. The intensity was increasing on a scale ranging from 1 to 10.
A higher number means more discolouration. The increase in colour intensity is not proportional but qualitative.
The colouration of flupirtine maleate and flupirtine mesilate has been observed at 60° C. and at 70° C. with the substance alone and in mixture with micro crystalline cellulose (MCC), with lactose or with dicalcium phosphate DiCaPhos (CaHPO4). The tests were performed under dry and neat conditions. Neat refers to saturated with moisture, i.e., 100% relative humidity (rh). […] Only with lactose moisture had to be avoided for the mesilate.

stability towards oxidation and towards discolouration [1] | decrease of area under the peak of the flupirtine signal [2] | Flupirtine signal after 14 days (area under the peak in, %) [2] [%] | Flupirtine signal after 0 days (area under the peak in, %) [2] [%] | solubility thermodynamic at 60 min [3] [µg/mL] | Bulk density [4] [ml/100 g substance] | Solubility [3] [mg/100 ml water] | Bulk density ([4]; listed as Maleate Form A) [ml/100 g substance] | discolouration compared to maleate [5] | Structure (SMILES)
substantially improved stability | less than 0.1% | 96.87 | 96.93 | 32 | 358 | – | – | – | CCOC(=O)Nc1ccc(NCc2ccc(F)cc2)nc1N.O=S(=O)(O)c1ccccc1 [Flupirtine besilate, 2-amino-3-carbethoxyamino-6-(4-fluoro-benzylamino)-pyridine Besilate]
– | 3.11% | 96.18 | 99.27 | – | – | 1.6 | 686 | – | CCOC(=O)Nc1ccc(NCc2ccc(F)cc2)nc1N.O=C(O)/C=C\C(=O)O [Flupirtine maleate A, reference compound]
substantially improved stability | – | 96.81 | 97.69 | 52 | 478 | – | – | equal or less discolouration | CCOC(=O)Nc1ccc(NCc2ccc(F)cc2)nc1N.CS(=O)(=O)O [Flupirtine mesilate, 2-amino-3-carbethoxyamino-6-(4-fluoro-benzylamino)-pyridine Mesilate]
– | – | – | – | – | 420 | – | – | – | CCOC(=O)Nc1ccc(NCc2ccc(F)cc2)nc1N.Cc1ccc(S(=O)(=O)O)cc1 [Flupirtine tosilate, 2-amino-3-carbethoxyamino-6-(4-fluoro-benzylamino)-pyridine Tosilate]
– | – | – | – | – | 1634 | – | – | – | CCOC(=O)Nc1ccc(NCc2ccc(F)cc2)nc1N.O=C(O)/C=C\C(=O)O [Maleate Form B, reference compound]
